Measurements from patent publication US11773086B2, “Fungal modulators” (TRUSTEES OF BOSTON UNIVERSITY, priority 2020, dated 2023).

Legend:
[1] = tested on: FLC-resistant Candida auris; test: Checkerboard (dose-response matrix) with fluconazole, FICI; type: cell-based
Protocol: Generally, the synergy is measured by determining the fractional inhibitory concentration (FIC) value of the combination. […] FIC values for both agents in a particular square/well are calculated in this way followed by determination of the FIC index (sum of the FICs of each agent in the particular square/well).
Compound potency was assessed alone by dose response assays or in combination with another compound by dose-response matrixes in 96-well plates, or 384-well, flat-bottom, microtiter plates (Corning) as previously described. Plates were incubated at 30° C. for the indicated time period. Growth was quantified by measuring OD600 and corrected for medium background. All strains were assessed in biological duplicate experiments with technical duplicates. Growth was normalized to untreated controls and plotted as a heat map using Java TreeView 1.1.6r4. For dose-response matrixes fractional inhibitory concentration index at 90% growth inhibition (FICI90) was calculated as previously described. The fluconazole Etest susceptibility assay was performed as previously described. Briefly, 200 μL of 5×10^6 cells/mL were plated on YPD agar (1%) plates with either with 50 μM azoffluxin or containing DMSO.

C. albicans (SN95) = test: Azoffluxin dose-response with background fluconazole; type: cell-based, Candida albicans; conditions: fluconazole-sensitive laboratory strain SN95, background FLC 4 μg/mL
Protocol: (§1) FIGS. 2A-2E illustrate the above-described screening of the BU-CMD which identified azoffluxin as a fluconazole (FLC) potentiator against C. auris. […] Growth, as determined by optical density at 600 nm (OD600), is plotted in the presence of each CMD compound alone on the y-axis and in combination with FLC on the x-axis. Dotted lines represent 7-median absolute deviations from the median for each condition. […] FIG. 2B depicts the synergistic interactions. […] Growth was measured by the OD600 and normalized to the no drug control (see color bar). The fractional inhibitory concentration index (FICI) was calculated to determine the chemical interaction, with a value below 0.5 indicating synergy. […] FIG. 2D depicts FLC Etest strips in the presence and absence of 50 μM azoffluxin. […]
(§2) Compound potency was assessed alone by dose response assays or in combination with another compound by dose-response matrixes in 96-well plates, or 384-well, flat-bottom, microtiter plates (Corning) as previously described. […] Growth was quantified by measuring OD600 and corrected for medium background. All strains were assessed in biological duplicate experiments with technical duplicates. […] For dose-response matrixes fractional inhibitory concentration index at 90% growth inhibition (FICI90) was calculated as previously described. […]

[2] = Stability and activity in plasma; type: in vitro ADME
[3] = tested on: Saccharomyces cerevisiae (BY4741); test: Azoffluxin dose-response with background fluconazole; type: cell-based; conditions: fluconazole-sensitive laboratory strain BY4741, background FLC 0.5 μg/mL
Protocol: as §1, §2

C=C(C)C[C@@H](O)COc1cc2c(cc1C1(c3cc4c(cc3OC[C@H](O)CC(=C)C)OCO4)C(=O)Nc3cc(F)ccc31)OCO2 [CMLD012336]
interaction with fluconazole ([1]; Clade III isolate B12037 lacking Erg11 V125A/F126L and Mrr1 N647T): potent synergistic interaction
fractional inhibitory concentration index (FICI) ([1]; combination with fluconazole, C. auris Ci6684 (Erg11 Y132F), <0.5 = synergy): 0.25
FICI ([1]; fractional inhibitory concentration index for enhancement of FLC activity in FLC-resistant Candida auris, <0.5 strong synergy, 2 = no synergy): 0.130
potentiation of fluconazole across C. auris clades ([1]; isolates of the four major clades, Clade III the exception): potentiated fluconazole in multiple isolates from three of the four major clades
enhancement of fluconazole activity (C. albicans (SN95)): did not enhance the activity of fluconazole
stability in plasma [2]: stable and retains activity in plasma
enhancement of fluconazole activity [3]: did not enhance the activity of fluconazole
